Tests used:
Homo sapiens [1] = assay: Pharmacokinetic parameters for diffferent drugs or their active metabolite, following single oral or intravenous (IV) administration to subjects of different health conditions.; format: ADME, organism-based; parameters: dose 50 mg, dose 10 mg, route oral; conditions: in vivo
Homo sapiens [2] = assay: Pharmacokinetic parameters for different drugs, or their active metabolite following multiple oral or intravenous administration to subjects of varying health conditions.; format: ADME, organism-based; parameters: dose 30 mg, dose 135 mg, route oral; conditions: in vivo
[3] = iv, dosed compound id 67, dosed compound name AZATHIOPRINE, regimen Single dose, tissue Plasma
[4] = po, dose 10 mg, dosed compound id 63, dosed compound name BACLOFEN, gender male, regimen Single dose, tissue Plasma
[5] = po, dosed compound id 63, dosed compound name BACLOFEN, gender male, regimen Single dose, tissue Plasma
[6] = po, dosed compound id 66, dosed compound name CHLORTHALIDONE, regimen Single dose, tissue Plasma
[7] = po, dosed compound id 69, dosed compound name IRBESARTAN, gender male, regimen Single dose, tissue Plasma

Cn1cnc([N+](=O)[O-])c1Sc1ncnc2nc[nH]c12 [AZATHIOPRINE]
CL (Homo sapiens [1]; [3]): 57 mL/min/kg
Vd (Homo sapiens [1]; [3]): 0.81 L/kg
t1/2 (Homo sapiens [1]; [3]): 0.16 h

NCC(CC(=O)O)c1ccc(Cl)cc1 (configuration not stated) [BACLOFEN]
Vd (Homo sapiens [1]; other, dosed compound id 63, dosed compound name BACLOFEN, gender male, regimen Single dose, route intestinal infusion, tissue Plasma): 0.81 L/kg
CL (Homo sapiens [1]; other, dosed compound id 63, dosed compound name BACLOFEN, gender male, regimen Single dose, route intestinal infusion, tissue Urine): 2.72 mL/min/kg
Tmax (Homo sapiens [1]; [4]): 1 h
t1/2 (Homo sapiens [1]; [4]): 3.75 h
Cmax (Homo sapiens [1]; [5]): 160 ng/mL
F (Homo sapiens [1]; [5]): 70%

NS(=O)(=O)c1cc(C2(O)NC(=O)c3ccccc32)ccc1Cl (configuration not stated) [CHLORTHALIDONE]
Excretion (Homo sapiens [1]; po, at 50 mg, dosed compound id 66, dosed compound name CHLORTHALIDONE, regimen Single dose, tissue Urine): 65%
Tmax (Homo sapiens [1]; po, dose 50 mg, dosed compound id 66, dosed compound name CHLORTHALIDONE, regimen Single dose, tissue Plasma): 13.8 h
t1/2 (Homo sapiens [1]; po, dosed compound id 66, dosed compound name CHLORTHALIDONE, regimen Single dose, tissue Blood): 47 h
CL (Homo sapiens [1]; [6]): 0.04 mL/min/kg
Cmax (Homo sapiens [1]; [6]): 3700 ng/mL
F (Homo sapiens [1]; [6]): 64%
Vd (Homo sapiens [1]; [6]): 0.14 L/kg

CCCCC1=NC2(CCCC2)C(=O)N1Cc1ccc(-c2ccccc2-c2nnn[nH]2)cc1 [IRBESARTAN]
Tmax (Homo sapiens [1]; po, dose 50 mg, dosed compound id 69, dosed compound name IRBESARTAN, gender male, regimen Single dose, tissue Plasma): 1.2 h
CL (Homo sapiens [1]; [7]): 2.12 mL/min/kg
Cmax (Homo sapiens [1]; [7]): 1300 ng/mL
Vd (Homo sapiens [1]; [7]): 2.9 L/kg
bioavailability (Homo sapiens [1]; [7]): 60 to 80%
t1/2 (Homo sapiens [1]; [7]): 13 h
Excretion (Homo sapiens [1]; po, dosed compound id 69, dosed compound name IRBESARTAN, gender male, regimen Single dose, tissue Urine): 2.2%

Sc1ncnc2nc[nH]c12 [MERCAPTOPURINE ANHYDROUS]
F (Homo sapiens [1]; po, dosed compound id 621, dosed compound name AZATHIOPRINE, regimen Single dose, tissue Plasma): 60%
Tmax (Homo sapiens [2]; dose 135 mg, dosed compound id 621, dosed compound name AZATHIOPRINE, regimen Once daily, route oral, tissue Plasma): 1 to 2 h
Cmax (Homo sapiens [2]; dosed compound id 621, dosed compound name AZATHIOPRINE, regimen Once daily, tissue Plasma): 20 to 90 ng/mL

C[C@]12C=CC(=O)C=C1CC[C@@H]1[C@@H]2[C@@H](O)C[C@@]2(C)[C@H]1CC[C@]2(O)C(=O)CO [PREDNISOLONE]
CL (Homo sapiens [1]; po): 1 mL/min/kg
Excretion (Homo sapiens [1]; po): 26%
Vd (Homo sapiens [1]; po): 0.42 L/kg
t1/2 (Homo sapiens [1]; po): 2.2 h
Cmax (Homo sapiens [2]): 458 ng/mL
Tmax (Homo sapiens [2]): 1.5 h

Reference: ChEMBL document CHEMBL3832036, “Goodman and Gilman Ed. 12 | The Pharmaceutical Basis of Therapeutics| Table AII-I: Pharmacokinetic Data” (2011)
